The values below come from patent publication US9339503B2, “Tetrahydro-quinazolinone derivatives as TANK and PARP inhibitors” (MERCK PATENT GMBH, priority 2012, dated 2016).

For test [1], the target named is T1, GST-tagged Tnks-2 (873-1166 aa) (Homo sapiens, UniProt Q9H2K2).
T1 construct: GST-tagged Tnks-2 (873-1166 aa, prepared in-house); made in house
Description: TNKS 2 activity ELISA (autoparsylation assay). Type of test: biochemical. The following applies: read-out: IC50 tankyrase 2 (ELISA assay). The method, then: (§1) Biochemical Activity Testing of TNKS 1 and 2: Activity ELISA (Autoparsylation Assay)
(§2) For analysis of autoparsylation activity of TNKS 1 and 2 an activity ELISA was performed: In the first step GST tagged TNKS was captured on a Glutathione coated plate. Then the activity assay with biotinylated NAD was performed in the absence/presence of the compounds. During the enzymatic reaction GST tagged TNKS transferred biotinylated ADP-ribose to itself from biotinylated NAD as co-substrate. For the detection streptavidin-HRP conjugate was added that bound to the biotinylated TNKS and was thereby captured to the plates. The amount of biotinylated resp autoparsylated TNKS was detected with a luminescence substrate for HRP. The level of the luminescence signal correlated directly with the amount of autoparsylated TNKS and therefore with activity of TNKS.
(§3) The activity ELISA was performed in 384 well Glutathione coated microtiter plates (Express capture Glutathione coated plate, Biocat, Heidelberg, Germany). The plates were pre-equilibrated with PBS. Then the plates were incubated with 50 μl 20 ng/well GST-tagged Tnks-1 (1023-1327 aa, prepared in-house), respectively GST-tagged Tnks-2 (873-1166 aa, prepared in-house) in assay buffer (50 mM HEPES, 4 mM Mg-chloride, 0.05% Pluronic F-68, 2 mM DTT, pH 7.7) overnight at 4° C. The plates were washed 3 times with PBS-Tween-20. The wells were blocked by incubation at room temperature for 20 minutes with 50 μl blocking buffer (PBS, 0.05% Tween-20, 0.5% BSA). Afterwards the plates were washed 3 times with PBS-Tween-20. The enzymatic reaction was performed in 50 μl reaction solution (50 mM HEPES, 4 mM Mg-chloride, 0.05% Pluronic F-68, 1.4 mM DTT, 0.5% DMSO, pH 7.7) with 10 μM bio-NAD (Biolog, Life science Inst., Bremen, Germany) as co-substrate in the absence or presence of the test compound (10 dilution concentrations) for 1 hour at 30° C. The reaction was stopped by 3 times washing with PBS-Tween-20. For the detection 50 μl of 20 ng/μl Streptavidin, HRP conjugate (MoBiTec, Göttingen, Germany) in PBS/0.05% Tween-20/0.01% BSA were added and the plates were incubated for 30 minutes at room temperature. After three times washing with PBS-Tween-20 50 μl of SuperSignal ELISA Femto Maximum sensitivity substrate solution (ThermoFisherScientific (Pierce), Bonn, Germany) were added. Following a 1 minute incubation at room temperature luminescence signals were measured with an Envision multimode reader (Perkin Elmer LAS Germany GmbH) at 700 nm. The full value used was the inhibitor-free reaction. The pharmacological zero value used was XAV-939 (Tocris) in a final concentration of 5 μM. The inhibitory values (IC50) were determined using either the program Symyx Assay Explorer® or Condosseo® from GeneData.
Background: In an ELISA, binding on a coated surface is turned into a signal by an enzyme label.

Test [2] deals with T2, GST-tagged Tankyrase-1 (1023-1327 aa) (Homo sapiens, UniProt O95271).
T2 construct: GST-tagged Tankyrase-1 (1023-1327 aa)
Description: Tankyrase 1 autoparsylation assay (HTRF enzyme assay). Type of test: biochemical. The method, then:
(§4) The autoparsylation assay was run in two steps: the enzymatic reaction in which GST-tagged Tankyrase-1, resp Tankyrase-2 transferred biotinylated ADP-ribose to itself from biotinylated NAD as co-substrate and the detection reaction where a time resolved FRET between cryptate labelled anti-GST bound to the GST tag of the enzyme and Xlent® labelled-streptavidin bound the biotin-parsylation residue was analysed. The autoparsylation activity was detectable directly via the increase in HTRF signal.
(§5) The autoparsylation assay was performed as 384-well HTRF® (Cisbio, Codolet, France) assay format in Greiner low volume nb 384-well microtiter plates and was used for high throughput screen. 250 nM GST-tagged Tankyrase-1 (1023-1327 aa), respectively about 250 nM GST-tagged Tankyrase-2 (873-1166 aa) and 5 μM bio-NAD (Biolog, Life science Inst., Bremen, Germany) as co-substrate were incubated in a total volume of 5 μl (50 mM HEPES, 4 mM Mg-chloride, 0.05% Pluronic F-68, 1.4 mM DTT, 0.5% DMSO, pH 7.7) in the absence or presence of the test compound (10 dilution concentrations) for 90 min at 30° C. The reaction was stopped by the addition of 1 μl 50 mM EDTA solution. 2 μl of the detection solution (1.6 μM SA-Xlent® (Cisbio, Codolet, France), 7.4 nM Anti-GST-K® (Eu-labelled anti-GST, Cisbio, Codolet, France) in 50 mM HEPES, 800 mM KF, 0.1% BSA, 20 mM EDTA, 0.1% CHAPS, pH 7.0) were added. After 1 h incubation at room temperature the HTRF was measured with an Envision multimode reader (Perkin Elmer LAS Germany GmbH) at excitation wavelength 340 nm (laser mode) and emission wavelengths 615 nm and 665 nm. The ratio of the emission signals was determined. The full value used was the inhibitor-free reaction. The pharmacological zero value used was XAV-939 (Tocris) in a final concentration of 5 μM. The inhibitory values (IC50) were determined using either the program Symyx Assay Explorer® or Condosseo® from GeneData.

Test [3] concerns the target T3, GST-tagged Tnks-1 (1023-1327 aa) (Homo sapiens, UniProt O95271).
T3 construct: GST-tagged Tnks-1 (1023-1327 aa, prepared in-house); made in house
Description: TNKS 1 activity ELISA (autoparsylation assay). Type of test: biochemical. The following applies: read-out: IC50 tankyrase 1 (ELISA assay). The protocol:
as §1, §2, §3

Test [4] concerns the target T4, GST-tagged Tankyrase-2 (873-1166 aa) (Homo sapiens, UniProt Q9H2K2).
T4 construct: GST-tagged Tankyrase-2 (873-1166 aa)
Description: Tankyrase 2 autoparsylation assay (HTRF enzyme assay). The test is classed as biochemical. The method, then:
as §4, §5
On the technique in general: Time-resolved FRET reads energy transfer from a long-lived donor to a nearby acceptor.

In the next test the target is T5, His-tagged Parp-1 (Homo sapiens, UniProt P09874).
T5 construct: purchased Enzo Life Sciences GmbH, Lörrach, Germany
Kind of test: PARP-1 autoparsylation assay (HTRF). Type of test: biochemical. The following applies: read-out: IC50 PARP1. The protocol:
Biochemical Activity Testing of PARP-1: Autoparsylation Assay
The autoparsylation assay was run in two steps: the enzymatic reaction in which His-tagged Parp-1 transferred biotinylated ADP-ribose/ADP-ribose to itself from biotinylated NAD/NAD as co-substrate and the detection reaction where a time resolved FRET between cryptate labelled anti-His antibody bound to the His tag of the enzyme and Xlent® labelled-streptavidin bound the biotin-parsylation residue was analysed. The autoparsylation activity was detectable directly via the increase in HTRF signal.
The autoparsylation assay was performed as 384-well HTRF® (Cisbio, Codolet, France) assay format in Greiner low volume nb 384-well microtiter plates. 35 nM His-tagged Parp-1 (human, recombinant, Enzo Life Sciences GmbH, Lörrach, Germany) and a mixture of 125 nM bio-NAD (Biolog, Life science Inst., Bremen, Germany) and 800 nM NAD as co-substrate were incubated in a total volume of 6 μl (100 mM Tris/HCl, 4 mM Mg-chloride, 0.01% IGEPAL® CA630, 1 mM DTT, 0.5% DMSO, pH 8, 13 ng/μl activated DNA (BPS Bioscience, San Diego, US)) in the absence or presence of the test compound (10 dilution concentrations) for 150 min at 23° C. The reaction was stopped by the addition of 4 μl of the Stop/detection solution (70 nM SA-Xlent® (Cisbio, Codolet, France), 2.5 nM Anti-His-K® (Eu-labelled anti-His, Cisbio, Codolet, France) in 50 mM HEPES, 400 mM KF, 0.1% BSA, 20 mM EDTA, pH 7.0). After 1 h incubation at room temperature the HTRF was measured with an Envision multimode reader (Perkin Elmer LAS Germany GmbH) at excitation wavelength 340 nm (laser mode) and emission wavelengths 615 nm and 665 nm. The ratio of the emission signals was determined. The full value used was the inhibitor-free reaction. The pharmacological zero value used was Olaparib (LClabs, Woburn, US) in a final concentration of 1 μM. The inhibitory values (IC50) were determined using either the program Symyx Assay Explorer® or Condosseo® from GeneData.

The subject of the next test is DLD-1-cancer cells. The following applies: cited from earlier work.

T4 sequence (Q9H2K2 873-1166): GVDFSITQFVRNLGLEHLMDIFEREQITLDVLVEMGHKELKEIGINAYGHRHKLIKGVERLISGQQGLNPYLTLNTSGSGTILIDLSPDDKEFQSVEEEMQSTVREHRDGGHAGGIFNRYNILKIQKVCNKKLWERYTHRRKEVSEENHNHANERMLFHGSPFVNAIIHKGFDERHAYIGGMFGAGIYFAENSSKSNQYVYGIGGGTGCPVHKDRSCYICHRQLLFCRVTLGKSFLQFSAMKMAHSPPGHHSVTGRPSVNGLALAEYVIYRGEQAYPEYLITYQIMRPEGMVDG
T1 sequence (Q9H2K2 873-1166): as above
T3 sequence (O95271 1023-1327): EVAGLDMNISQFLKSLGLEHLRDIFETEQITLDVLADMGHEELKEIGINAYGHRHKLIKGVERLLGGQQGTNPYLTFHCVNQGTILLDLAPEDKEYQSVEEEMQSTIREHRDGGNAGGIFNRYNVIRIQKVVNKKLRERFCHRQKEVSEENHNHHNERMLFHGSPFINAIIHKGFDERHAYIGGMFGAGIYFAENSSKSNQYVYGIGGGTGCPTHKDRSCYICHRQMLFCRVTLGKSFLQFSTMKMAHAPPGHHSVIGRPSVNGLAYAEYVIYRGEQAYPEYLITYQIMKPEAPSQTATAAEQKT
T2 sequence (O95271 1023-1327): as above
T5 sequence (P09874 whole entry): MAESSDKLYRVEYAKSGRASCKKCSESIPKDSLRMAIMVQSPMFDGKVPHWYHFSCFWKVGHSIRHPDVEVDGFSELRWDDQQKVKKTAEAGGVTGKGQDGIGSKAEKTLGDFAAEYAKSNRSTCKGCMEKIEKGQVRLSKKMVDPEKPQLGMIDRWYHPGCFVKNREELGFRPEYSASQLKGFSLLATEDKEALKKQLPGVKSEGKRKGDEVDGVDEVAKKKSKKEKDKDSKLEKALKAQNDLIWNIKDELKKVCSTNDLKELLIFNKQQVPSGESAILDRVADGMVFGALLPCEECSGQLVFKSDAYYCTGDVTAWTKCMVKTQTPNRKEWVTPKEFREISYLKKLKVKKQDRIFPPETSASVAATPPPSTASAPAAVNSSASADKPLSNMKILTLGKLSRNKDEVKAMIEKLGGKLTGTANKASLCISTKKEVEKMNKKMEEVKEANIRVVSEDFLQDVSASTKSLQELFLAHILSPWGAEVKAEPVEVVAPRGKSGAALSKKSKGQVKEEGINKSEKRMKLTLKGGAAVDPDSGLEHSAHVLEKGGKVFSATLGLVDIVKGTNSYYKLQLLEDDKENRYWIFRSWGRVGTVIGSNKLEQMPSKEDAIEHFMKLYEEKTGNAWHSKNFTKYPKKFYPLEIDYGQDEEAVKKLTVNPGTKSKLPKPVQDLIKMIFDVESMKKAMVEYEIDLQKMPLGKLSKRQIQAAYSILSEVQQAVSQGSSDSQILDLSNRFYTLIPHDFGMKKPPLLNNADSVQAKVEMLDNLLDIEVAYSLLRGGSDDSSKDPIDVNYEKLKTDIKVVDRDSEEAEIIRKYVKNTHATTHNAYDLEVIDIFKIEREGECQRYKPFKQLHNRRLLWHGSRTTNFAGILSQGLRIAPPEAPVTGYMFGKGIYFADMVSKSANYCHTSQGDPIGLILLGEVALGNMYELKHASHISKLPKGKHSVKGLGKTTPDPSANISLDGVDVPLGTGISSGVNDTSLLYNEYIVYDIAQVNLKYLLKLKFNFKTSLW

By IC50 is commonly meant the concentration at which inhibition is half-maximal. On to `NC(=O)c1ccccc1N1CCN(c2nc3c(c(=O)[nH]2)CCCC3)CC1` [Compound A34, 2-[4-(4-oxo-5,6,7,8-tetrahydro-3H-quinazolin-2-yl)piperazin-1-yl]benzamide], for which the IC50 was less than 300 nM in test [1]; less than 300 nM in test [2]; less than 300 nM in test [3]; 300 to 3000 nM in test [4]; less than 300 nM on His-tagged Parp-1.

On to `Oc1nc(-c2ccc(C(F)(F)F)cc2)nc2c1CSCC2` [XAV939], for which, in the test with DLD-1-cancer cells, the “growth of DLD-1-cancer cells” value is recorded as “inhibits growth”.
